# Legend:
# osteoclast formation = conditions: in vitro assay, described in WO 2005/000404; read-out: IC50, inhibitory activity against osteoclast formation; cited from earlier work
# [1] = system: RANK, c-Fos, MITF, PU.1, TRAF6, OPG; experiment: RNA expression of osteogenic factors by quantitative PCR in RAW264.7 macrophages; type: cell-based; conditions: undifferentiated and RANKL-differentiated (30 ng/mL, 3 days) cells, apilimod 24h
# Source text: FIG. 5A-5B: Effect of apilimod treatment on the RNA expression of osteogenic factors RANK, c-Fos, microphthalmia-associated transcription factor (MITF), PU.1, TNF receptor associated factor 6 (TRAF6) and osteoprotegerin (OPG) in undifferentiated (A) or differentiated (B) RAW264.7 macrophages as assessed by quantitative PCR.
# (§1) Apilimod blocked the expression of RANK receptor and the transcription factors MITF, PU.1 and c-Fos in both undifferentiated and RANKL-differentiated RAW264.7 macrophages. Cells were differentiated for a total of 3 days with 30 ng/mL RANKL. On the last day of differentiation cells were co-treated with RANKL and the indicated concentration of apilimod or vehicle for 24h. […] (see FIGS. 5A-5B).
# MPC-11 tumor cells = experiment: systemic MPC-11 syngeneic model of multiple myeloma; type: in vivo, mouse
# Source text: To determine if apilimod inhibition of RANKL/RANK signaling blocks the bone growth of multiple myeloma cells in vivo, the systemic MPC-11 syngeneic model was used (Laskov R et al. J Exp Med. 1970 131(3):515-41; Ferguson V L et al. Bone. 2002 30(1): 109-116). In this model, animals develop hind limb paralysis due to infiltration of multiple myeloma cells into the vertebrae that compresses the spinal column. In brief, MPC-11 tumor cells were maintained in vitro in DMEM medium supplemented with 10% horse serum at 37° C. in 5% CO2. Each mouse was then injected via the tail vein with MPC-11 tumor cells (1×10^6) in 0.1 ml of PBS for tumor development. The regimen of dosing is detailed in Table 1. At 4 days post-tumor inoculation, mice were orally administered with a vehicle or apilimod dimesylate (70 mg/kg) twice a day up to 35 days. Survival rate of vehicle-treated animal group (n=10) and apilimod-treated animal group (n=10) were monitored as an indicator of hind limb paralysis.
# To directly examine the effect of apilimod on the MPC-11 tumor burden in bone, immunohistochemical staining was performed. Femurs from the in vivo experiment were fixed in 10% formalin and then rinsed in 70% ethanol and dehydrated in acetone before embedding in methacrylate. 4 μm sections were then stained in 2% Toluidine blue. […] Orange boxed region on left panel is shown at 40× magnification in the right panel. Note total effacement of bone marrow architecture and replacement with MPC-11 tumor cells in top panel. […] This effect was quantitated by generating paraffin sections from tibias of the animals and staining the sections with the multiple myeloma marker CD138 (BioLegend antibody, Clone 281-2). Values for CD138 positive staining were obtained by measuring within in a pre-defined Region of Interest (ROI) defined as 1.17 millimeter square, 200 micrometer below the tibia proximal growth plate. CD138 positive staining was measured according to standard protocols (Dempster D W et al. J Clin Endocrinol Metab. 2012 97(8):2799-2808).
# Cathepsin K = Cathepsin K maturation, western blot in RAW 264.7-derived osteoclasts; type: cell-based; conditions: differentiated with 30 ng/ml RANKL 4 days, then RANKL and apilimod 24 hours
# Method: RAW264.7 macrophages were differentiated with 30 ng/ml RANKL for 4 days and subsequently treated with RANKL and the indicated concentration of apilimod for 24 hours prior to harvesting lysates and performing western blot for the indicated protein.
# [2] = system: periodontal bone resorption; experiment: rat periodontal disease model; type: in vivo
# Method: FIGS. 6A-6B: Graphical representation of the effect of apilimod on periodontal bone resorption (A). Daily oral doses of apilimod (8 and 20 mg/kg) reduce bone loss (B).
# Moreover, apilimod was active in inhibiting in vivo osteoclast activity in a rat periodontal disease model (see FIGS. 6A-6B). In brief, Th-1 type clonal cells specific for Actinobacillus actinomycetemcomitans (Aa) 29-kDa outer membrane protein (Omp29) were activated by incubation with formalin-killed Aa and irradiated syngeneic rat spleen cells. These activated cells were then transferred intravenously through the rat tail vein (1.0×10^7 cells) into the rat. On the same day, the antigen Omp29 was injected with LPS into the left palatal maxilla gingiva; and saline was injected into the right palatal maxilla gingiva, for control measurements. Apilimod was given orally in daily doses of 8 and 20 mg/kg from the day of the induction until day 10. At the end of the ten day period, animals were sacrificed and their jaws were defleshed to allow the assessment of periodontal bone resorption, calculated as the ratio of the difference in cemento-enamel junction (CEJ-AL) distance between left and right sides versus CEJ-AL distance of right.
# CYP3A4, CYP1A2, CYP2D6 = experiment: reaction phenotyping studies; type: in vitro ADME
# Method: (§2) In embodiments, the apilimod for use in the compositions and methods of the invention is the free base or dimesylate salt form, MW 610.7 (dimesylate salt); tPSA 83.1; pKa 5.39 (±0.03), 4.54 (±0.27); HBD 1. […] In embodiments, an active metabolite of apilimod may be used. […] Tmax generally occurred within 1 or 2 hours after the oral dose, consistent with the rapid […] of this compound from the circulation. […] The primary metabolites are short-lived in circulation. Both apilimod free base and the dimesylate salt are highly bound ([…]) to rat, dog and human plasma proteins.
# [3] = microsomal and hepatocyte stability studies, metabolite identification; type: in vitro ADME; conditions: rat and human microsomal and hepatocyte stability studies
# Method: as §2
# RAW264.7 macrophages = experiment: RANKL-induced differentiation of TRAP positive osteoclasts from RAW264.7 macrophages; type: cell-based
# Method: RAW264.7 macrophages were differentiated with either vehicle or 30 ng/mL RANKL for a total of 5 days. For the last 3 days of differentiation, cells were co-treated with the indicated concentration of apilimod. Cells were subsequently stained for TRAP. Arrows highlight giant TRAP positive, multinucleated osteoclasts.
# FIGS. 4A-4B: Inhibition of RANKL-induced differentiation of RAW264.7-derived osteoclasts by apilimod as indicated by a reduction in the number of TRAP-positive multinucleated cells (A) or giant osteoclasts (B). The average of triplicate wells was determined and percentages relative to untreated are shown.
# as §1
# WSU-DLCL2B cell lymphoma = experiment: viability (CellTiter Glo) of CRISPR guide RNA cell pools treated with apilimod; type: cell-based; conditions: treated for 3 days
# Method: Pools cells containing guide RNAs targeted against either the indicated genes or non-targeting (NT) guide RNAs were treated with apilimod for 3 days and viability was assayed by CellTiter Glo (Promega).
# A genome-wide CRISPR screen for factors conferring resistance of B-cell lymphoma to apilimod uncovered the lysosomal regulator TFEB as well as the lysosomal and osteopetrosis-associated genes CLCN7, OSTM1, and SNX10 as mediators of apilimod-induced cytotoxicity (see FIGS. 1A-1D).
# pKa = type: physicochemical
# [4] = tibia sections, ROI 1.17 millimeter square, n = 5, apilimod dimesylate 70 mg/kg p.o. BID
# [5] = RANKL-induced differentiation, relative to untreated
smiles,measurement,setting,value
Cc1cccc(/C=N/Nc2cc(N3CCOCC3)nc(OCCc3ccccn3)n2)c1 [apilimod],IC50,osteoclast formation,15 nM
same,"RNA expression of RANK, c-Fos, MITF, and PU.1",[1],Decreases were observed
same,RNA expression of TRAF6 or OPG,[1],Significant decreases were not observed
same,"invasion of myeloma cells in femur marrow, toluidine blue staining, qualitative",MPC-11 tumor cells; apilimod dimesylate 70 mg/kg p.o. BID,minimal invasion
same,animals with hind limb paralysis,"MPC-11 tumor cells; apilimod dimesylate 70 mg/kg p.o. twice a day up to 35 days, n=10",none
same,"Tumor Area, CD138 staining",MPC-11 tumor cells; [4],0.012 ± 0.03 mm^2
same,"Tumor Area/ Tissue Area, CD138 staining",MPC-11 tumor cells; [4],0.010 ± 0.02%
same,cathepsin K processing (maturation),Cathepsin K,inhibition of cathepsin K processing
same,protection against Th1-mediated bone loss (periodontal bone resorption),[2]; 8 mg/kg orally daily until day 10,significant protection
same,protection against Th1-mediated bone loss (periodontal bone resorption),[2]; 20 mg/kg orally daily until day 10,significant protection
same,enzymes that contribute to metabolism,"CYP3A4, CYP1A2, CYP2D6",CYP3A4 and to a lesser extent CYP1A2 and/or CYP2D6
same,primary metabolites identified,[3],Six primary metabolites
same,RANKL-stimulated osteoclastogenesis,"RAW264.7 macrophages; 30 ng/mL RANKL 5 days, apilimod for the last 3 days, TRAP staining",potently blocked
same,number of TRAP-positive multinucleated cells,RAW264.7 macrophages; [5],reduction
same,number of giant osteoclasts,RAW264.7 macrophages; [5],reduction
same,"effect of CRISPR-induced loss of CLCN7, OSTM1, SNX10, TFEB on viability under apilimod",WSU-DLCL2B cell lymphoma,confer resistance to apilimod
same,pKa,pKa,5.39

# Reference: patent US20190192527A1, “COMPOSITIONS COMPRISING PIKFYVE INHIBITORS AND METHODS RELATED TO INHIBITION OF RANK SIGNALING” (AI Therapeutics, Inc., priority 2016, published 2019)
